The values below come from US20120157451A1, “RAF INHIBITOR COMPOUNDS AND METHODS OF USE THEREOF” (GENENTECH, INC, priority 2009, published 2012).

The assay has as its target T1, V600E full-length B-Raf (Homo sapiens, UniProt P15056, V600E).
T1 construct: made in house; host or cells: Sf9 insect cells (baculovirus)
Put plainly: B-Raf IC50 assay (incorporation of radiolabeled phosphate from [γ-33P]ATP into FSBA-modified wild-type MEK). The following applies: bound stated. The class given is biochemical. The text has this: Determining the activity of Raf in the sample is possible by a number of direct and indirect detection methods (US 2004/0082014). Activity of human recombinant B-Raf protein may be assessed in vitro by assay of the incorporation of radio labeled phosphate to recombinant MAP kinase (MEK), a known physiologic substrate of B-Raf, according to US 2004/0127496 and WO 03/022840.
Activity of human recombinant B-Raf protein may be assessed in vitro by assay of the incorporation of radio labeled phosphate to recombinant MAP kinase (MEK), a known physiologic substrate of B-Raf, according to US 2004/0127496 and WO 03/022840. Catalytically active human recombinant B-Raf protein is obtained by purification from sf9 insect cells infected with a human B-Raf recombinant baculovirus expression vector.
Incubations were carried out at 22° C. in a Costar 3365 plate (Corning). Prior to the assay, the B-Raf and FSBA-MEK were preincubated together in assay buffer at 1.5× (20 μL of 30 nM and 1.5 μM, respectively) for 15 minutes, and the assay was initiated by the addition of 10 μL of 10 μM ATP. Following the 60-minute incubation, the assay mixtures were quenched by the addition of 100 μL of 25% TCA, the plate was mixed on a rotary shaker for 1 minute, and the product was captured on a Perkin-Elmer GF/B filter plate using a Tomtec Mach III Harvester. After sealing the bottom of the plate, […] of Bio-Safe II (Research Products International) scintillation cocktail were added to each well and the plate was top-sealed and counted in a Topcount NXT (Packard).

T1 sequence (P15056 whole entry V600E): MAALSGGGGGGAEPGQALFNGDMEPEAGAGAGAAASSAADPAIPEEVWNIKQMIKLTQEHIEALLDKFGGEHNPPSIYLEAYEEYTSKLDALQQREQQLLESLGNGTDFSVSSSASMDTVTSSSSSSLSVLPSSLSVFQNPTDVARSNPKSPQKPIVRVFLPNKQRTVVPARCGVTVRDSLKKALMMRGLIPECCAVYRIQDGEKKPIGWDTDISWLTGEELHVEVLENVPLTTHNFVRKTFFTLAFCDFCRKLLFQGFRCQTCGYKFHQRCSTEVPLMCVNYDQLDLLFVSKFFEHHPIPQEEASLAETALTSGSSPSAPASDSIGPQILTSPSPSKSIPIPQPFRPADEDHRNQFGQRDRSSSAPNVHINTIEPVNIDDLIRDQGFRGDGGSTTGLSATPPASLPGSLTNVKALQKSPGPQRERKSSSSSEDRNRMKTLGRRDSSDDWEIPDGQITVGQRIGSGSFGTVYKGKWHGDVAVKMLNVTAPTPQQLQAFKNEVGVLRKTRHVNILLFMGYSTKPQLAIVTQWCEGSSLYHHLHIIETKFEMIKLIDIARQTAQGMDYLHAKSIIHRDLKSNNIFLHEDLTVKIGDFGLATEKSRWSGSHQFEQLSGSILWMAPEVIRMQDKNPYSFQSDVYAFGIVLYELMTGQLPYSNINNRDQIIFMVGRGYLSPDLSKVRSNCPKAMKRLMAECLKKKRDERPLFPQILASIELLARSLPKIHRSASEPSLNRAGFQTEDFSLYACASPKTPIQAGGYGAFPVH

In the case of `CCCS(=O)(=O)Nc1ccc(F)c(C(=O)Nc2cnc3cc(N4CCOCC4)nn3c2)c1F` [Example 36, 2,6-difluoro-N-(2-morpholinopyrazolo [1,5-a]pyrimidin-6-yl)-3-(propylsulfonamido) benzamide], the IC50 (usually the concentration that inhibits the measured activity by half) was less than 0.3 µM.

As to `CCCS(=O)(=O)Nc1ccc(F)c(C(=O)Nc2cnc3cc(C(F)(F)F)nn3c2)c1F` [Example 32, 2,6-difluoro-3-(propylsulfonamido)-N-(2-(trifluoromethyl)pyrazolo[1,5-a]pyrimidin-6-yl)benzamide], the IC50 was less than 0.15 µM. Regarding `CCCS(=O)(=O)Nc1ccc(F)c(C(=O)Nc2cnc3cc(OCC)nn3c2)c1F` [Example 3, N-(2-ethoxypyrazolo[1,5-a]pyrimidin-6-yl)-2,6-difluoro-3-(propylsulfonamido)benzamide], the IC50 was less than 0.15 µM. The compound `CCCS(=O)(=O)Nc1ccc(F)c(C(=O)Nc2cnc3ccnn3c2)c1F` [Example 27, 2,6-difluoro-3-(propylsulfonamido)-N-(pyrazolo[1,5-a]pyrimidin-6-yl)benzamide] had an IC50 of less than 0.3 µM.

`CCCS(=O)(=O)Nc1ccc(F)c(C(=O)Nc2cnc3cc(-c4cnn(C)c4)nn3c2)c1F` [Example 12, 2,6-difluoro-N-(2-(1-methyl-1H-pyrazol-4-yl)pyrazolo[1,5-a]pyrimidin-6-yl)-3-(propylsulfonamido)benzamide] gave an IC50 of less than 0.15 µM. As to `CCCS(=O)(=O)Nc1ccc(F)c(C(=O)Nc2cnc3cc(SC)nn3c2)c1F` [Example 14, 2,6-difluoro-N-(2-(methylthio)pyrazolo[1,5-a]pyrimidin-6-yl)-3-(propylsulfonamido)benzamide], the 50% inhibitory concentration (IC50) is less than 0.15 µM. As to `CCCS(=O)(=O)Nc1ccc(Cl)c(C(=O)Nc2cnc3cc(OC)nn3c2)c1F` [Example 19, 6-chloro-2-fluoro-N-(2-methoxypyrazolo [1,5-a]pyrimidin-6-yl)-3-(propylsulfonamido) benzamide], the IC50 was less than 0.15 µM. For `CCCS(=O)(=O)Nc1ccc(Cl)c(C(=O)Nc2cnc3cc(-c4ccccc4)nn3c2)c1F` [Example 33, 6-chloro-2-fluoro-N-(2-phenylpyrazolo [1,5-a]pyrimidin-6-yl)-3-(propylsulfonamido) benzamide] the value was less than 0.15 µM; for `CCCS(=O)(=O)Nc1ccc(F)c(C(=O)Nc2cnc3cc(NC(C)C)nn3c2)c1F` [Example 18, 2,6-difluoro-N-(2-(isopropylamino)pyrazolo[1,5-a]pyrimidin-6-yl)-3-(propylsulfonamido)benzamide], less than 0.3 µM; for `CCCS(=O)(=O)Nc1ccc(F)c(C(=O)Nc2cnc3cc(OCCO)nn3c2)c1F` [Example 15, 2,6-difluoro-N-(2-(2-hydroxyethoxy)pyrazolo[1,5-a]pyrimidin-6-yl)-3-(propylsulfonamido)benzamide], less than 0.15 µM. Take `CCCS(=O)(=O)Nc1ccc(F)c(C(=O)Nc2cnc3cc(C4CC4)nn3c2)c1F` [Example 28, N-(2-cyclopropylpyrazolo [1,5-a]pyrimidin-6-yl)-2,6-difluoro-3-(propylsulfonamido) benzamide]: the half-inhibitory concentration (IC50) is less than 0.15 µM. On to `CCCS(=O)(=O)Nc1ccc(F)c(C(=O)Nc2cnc3cc(OC)nn3c2)c1Cl` [Example 20, 2-chloro-6-fluoro-N-(2-methoxypyrazolo [1,5-a]pyrimidin-6-yl)-3-(propylsulfonamido) benzamide], for which the IC50 is less than 0.15 µM. Consider `CCCS(=O)(=O)Nc1ccc(F)c(C(=O)Nc2cnc3cc(C4CCCC4)nn3c2)c1F` [Example 30, N-(2-cyclopentylpyrazolo [1,5-a]pyrimidin-6-yl)-2,6-difluoro-3-(propylsulfonamido) benzamide], for which the IC50 was less than 0.15 µM. With `CCCS(=O)(=O)Nc1ccc(F)c(C(=O)Nc2cnc3cc(CC)nn3c2)c1F` [Example 29, N-(2-ethylpyrazolo[1,5-a]pyrimidin-6-yl)-2,6-difluoro-3-(propylsulfonamido) benzamide], the IC50 was less than 0.15 µM. For the compound `CCCS(=O)(=O)Nc1ccc(F)c(C(=O)Nc2cnc3cc(-c4cnn(CCO)c4)nn3c2)c1F` [Example 13, 2,6-difluoro-N-(2-(1-(2-hydroxyethyl)-1H-pyrazol-4-yl)pyrazolo[1,5-a]pyrimidin-6-yl)-3-(propylsulfonamido)benzamide], the IC50 was less than 0.15 µM.

`CCCS(=O)(=O)Nc1ccc(F)c(C(=O)Nc2cnc3cc(NC)nn3c2)c1F` [Example 35, 2,6-difluoro-N-(2-(methylamino)pyrazolo[1,5-a]pyrimidin-6-yl)-3-(propylsulfonamido) benzamide]: the IC50 is less than 0.15 µM. `CCCS(=O)(=O)Nc1ccc(F)c(C(=O)Nc2cnc3cc(C4CCNCC4)nn3c2)c1F` [Example 4, 2,6-difluoro-N-(2-(piperidin-4-yl)pyrazolo[1,5-a]pyrimidin-6-yl)-3-(propylsulfonamido)benzamide] showed an IC50 of less than 0.3 µM.

Take `CCCS(=O)(=O)Nc1ccc(F)c(C(=O)Nc2cnc3cc(C4CCOC4)nn3c2)c1F` (stereo not drawn) [Example 31, 2,6-difluoro-3-(propylsulfonamido)-N-(2-(tetrahydrofuran-3-yl)pyrazolo[1,5-a]pyrimidin-6-yl)benzamide]: the 50% inhibitory concentration (IC50) was less than 0.3 µM. For `COc1cc2ncc(NC(=O)c3c(F)ccc(NS(=O)(=O)CCCF)c3F)cn2n1` [Example 21, 2,6-difluoro-3-(3-fluoropropyl-sulfonamido)-N-(2-methoxypyrazolo [1,5-a]pyrimidin-6-yl)benzamide] the value was less than 0.15 µM; for `CCCS(=O)(=O)Nc1ccc(F)c(C(=O)Nc2cnc3cc(OCCOC)nn3c2)c1F` [Example 16, 2,6-difluoro-N-(2-(2-methoxyethoxy)pyrazolo[1,5-a]pyrimidin-6-yl)-3-(propylsulfonamido)benzamide], less than 0.15 µM; for `CCCS(=O)(=O)Nc1ccc(F)c(C(=O)Nc2cnc3cc(-c4ccc(F)cc4)nn3c2)c1F` [Example 7, 2,6-difluoro-N-(2-(4-fluorophenyl)pyrazolo[1,5-a]pyrimidin-6-yl)-3-(propylsulfonamido)benzamide], less than 0.15 µM. In turn, `COc1cc2ncc(NC(=O)c3c(F)ccc(NS(=O)(=O)CC(C)C)c3F)cn2n1` [Example 25, 2,6-difluoro-N-(2-methoxypyrazolo [1,5-a]pyrimidin-6-yl)-3-(2-methylpropyl-sulfonamido) benzamide] yielded an IC50 of less than 0.15 µM.

Regarding `CCCS(=O)(=O)Nc1ccc(F)c(C(=O)Nc2cnc3cc(C)nn3c2)c1F` [Example 26, 2,6-difluoro-N-(2-methylpyrazolo [1,5-a]pyrimidin-6-yl)-3-(propylsulfonamido) benzamide], the IC50 is less than 0.15 µM. In turn, `CCCS(=O)(=O)Nc1ccc(F)c(C(=O)Nc2cnc3cc(-c4ccc(Cl)cc4)nn3c2)c1F` [Example 6, N-(2-(4-chlorophenyl)pyrazolo[1,5-a]pyrimidin-6-yl)-2,6-difluoro-3-(propylsulfonamido)benzamide] gave an IC50 of less than 0.15 µM.

In turn, `CCCS(=O)(=O)Nc1ccc(F)c(C(=O)Nc2cnc3cc(OC(C)C)nn3c2)c1F` [Example 2, 2,6-difluoro-N-(2-isopropoxypyrazolo[1,5-a]pyrimidin-6-yl)-3-(propylsulfonamido)benzamide] showed an IC50 of less than 0.15 µM. As to `CCCS(=O)(=O)Nc1ccc(F)c(C(=O)Nc2cnc3cc(-c4cccc(F)c4)nn3c2)c1F` [Example 9, 2,6-difluoro-N-(2-(3-fluorophenyl)pyrazolo[1,5-a]pyrimidin-6-yl)-3-(propylsulfonamido)benzamide], the IC50 was less than 0.15 µM. For `CCCS(=O)(=O)Nc1ccc(F)c(C(=O)Nc2cnc3cc(-c4ccc(C)cc4)nn3c2)c1F` [Example 8, 2,6-difluoro-3-(propylsulfonamido)-N-(2-p-tolylpyrazolo[1,5-a]pyrimidin-6-yl)benzamide] the value was less than 0.15 µM.
